Measured values from patent publication US9375436B2, “Androgen treatment in females” (priority 2004, dated 2016).

Legend:
[1] = test system: women with diminished ovarian reserve; experiment: Miscarriage rates in DHEA pregnancies at two centers versus 2004 national US IVF data (Example 8); assay type: in vivo, human
Procedure: Based on reported clinical experiences, the indications for DHEA supplementation have changed over the years, with women above age 40 since 2007 receiving routine supplementation, and younger women receiving supplementation only selectively.
DHEA supplementation involves the use of pharmaceutical grade micronized DHEA at a dosage of about 25 mg, three times daily. Patients are on DHEA supplementation for at least about two months prior to oocyte retrieval. This period of minimal pretreatment is based on the recognition that at two months pregnancy curves between DHEA pretreated and control patients statistically diverge. DHEA is maintained until pregnancy is established and is discontinued with positive pregnancy test.
Toronto West Fertility Associates, in Toronto, Canada, started utilizing DHEA independent of the use of DHEA at the Center for Human Reproduction (CHR) in New York, N.Y. In December of 2007, Toronto's medical director forwarded a detailed electronic record of the center's all-inclusive DHEA experience for analysis to CHR. This study, therefore, reports on the miscarriage rate of pregnancies, independently established under DHEA supplementation at both fertility centers, and compares these rates, age-stratified, to miscarriage rates reported in a national IVF data base in the U.S. for the year 2004. The definitions of clinical pregnancy, and of miscarriage, used herein follow the reporting requirements of this national data base, defining a clinical pregnancy as a pregnancy, confirmed by ultrasound examination.
Miscarriage rates of DHEA supplemented patients were compared with national IVF outcome statistics, reported annually under Federal mandate by the Centers for Disease Control. The data utilized for this study reflect 2004 United States national statistics. Pregnancy and miscarriage rates at the two centers were pooled after confirmation of homogeneity of variance. Common odds ratios of the pooled miscarriage rates among age stratified pregnant patients were compared between the pooled rates and the 2004 US national rates utilizing the Mantel-Haenszel common odds ratio. Statistical analyses were performed using SPSS Windows, standard version 15.0.
DHEA supplementation: After approval by the center's institutional review board, the Center for Human Reproduction (CHR) in New York City has been utilizing DHEA supplementation in women with diminished ovarian reserve since 2004. Based on reported clinical experiences, the indications for such supplementation have changed over the years: In initial stages, only older women, above age 42, were supplemented and only if they had failed at least one IVF cycle and less than 4 oocytes had been retrieved in confirmation of ovarian resistance to stimulation. By mid-2005, indications were expanded to all women above age 40 with evidence of ovarian resistance and a history of one failed prior IVF cycle. […] By mid-2006 FSH baseline criteria were changed from absolute FSH elevations to elevations in age-specific FSH levels.
DHEA supplementation in all patients involves oral, pharmaceutical grade micronized medication at a dosage of 25 mg, three times daily (TID). Only morbidly obese women receive an increased daily dosage of 100 mg and no such women were involved in this study. […] Limited patient volume and funding sources have prevented dose response studies and 25 mg DHEA TID daily has, therefore, remained the only standard treatment dosage. Patients receive at least two months of DHEA supplementation prior to oocyte retrieval, unless they conceive spontaneously during that time period. This minimum pretreatment period is based on the recognition that at two months pregnancy curves between DHEA pretreated and control patients statistically diverge. DHEA is maintained until pregnancy, and is discontinued with second positive pregnancy test. […]

[2] = test system: proven poor responders to ovarian stimulation with gonadotropins; conditions: 80 mg micronized DHEA for two months; five poor responders, six IVF cycles; cited from earlier work

Compound: C[C@]12CC[C@H](O)CC1=CC[C@@H]1[C@@H]2CC[C@]2(C)C(=O)CC[C@@H]12 [DHEA, Dehydroepiandrosterone]
- clinical miscarriage rate, Toronto ([1]; 33 DHEA pregnancies, five miscarriages): 15.2%
- clinical miscarriage rate, New York ([1]; 40 DHEA pregnancies, six miscarriages): 15.0%
- Misc. Rate (%) ([1]; NY, age 35-37): 0.0%
- Miscarriages ([1]; NY, age 35-37, 5 pregnancies): 0
- Misc. Rate (%) ([1]; NY, age 38-40): 0.0%
- Miscarriages ([1]; NY, age 38-40, 6 pregnancies): 0
- Misc. Rate (%) ([1]; NY, age 41-42): 20.0%
- Miscarriages ([1]; NY, age 41-42, 10 pregnancies): 2
- Misc. Rate (%) ([1]; NY, age <35): 10.0%
- Miscarriages ([1]; NY, age <35, 10 pregnancies): 1
- Misc. Rate (%) ([1]; NY, age >42): 33.3%
- Miscarriages ([1]; NY, age >42, 9 pregnancies): 3
- Misc. Rate (%) ([1]; TO, age 35-37): 10.0%
- Miscarriages ([1]; TO, age 35-37, 10 pregnancies): 1
- Misc. Rate (%) ([1]; TO, age 38-40): 23.1%
- Miscarriages ([1]; TO, age 38-40, 13 pregnancies): 3
- Miscarriages ([1]; TO, age 41-42, 0 pregnancies): 0
- Misc. Rate (%) ([1]; TO, age <35): 14.3%
- Miscarriages ([1]; TO, age <35, 7 pregnancies): 1
- Misc. Rate (%) ([1]; TO, age >42): 0.0%
- Miscarriages ([1]; TO, age >42, 3 pregnancies): 0
- Misc. Rate (%) ([1]; TOTAL both centers, age 35-37): 6.7%
- Misc. Rate (%) ([1]; TOTAL both centers, age 38-40): 15.8%
- Misc. Rate (%) ([1]; TOTAL both centers, age 41-42): 20.0%
- Misc. Rate (%) ([1]; TOTAL both centers, age <35): 11.8%
- Misc. Rate (%) ([1]; TOTAL both centers, age >42): 25.0%
- reduction in miscarriage risk ([1]; first statistical model (age-stratified odds ratio)): approximately 50%
- decline in miscarriages, depending on statistical method ([1]; versus national US IVF pregnancies): 50-80%
- response to ovarian stimulation compared with prior unsupplemented cycle [2]: improved responsiveness
